Data on two compounds can be found in US20070060605A1, “Compositions and methods for inhibiting platelet activation and thrombosis” (priority 2001, published 2007).

Assay [1] concerns platelets. The assay is described as follows: Agonist-induced platelet granule secretion / activation (P-selectin expression by flow cytometry; ADP/ATP release). Type of assay: cell-based, human. The note with it: for IC50: Homo sapiens, Platelet. As for the experimental part:
In order to monitor ATP release, a cocktail of 100 μM SFLLR (synthesized using solid phase Fmoc chemistry on an Applied Biosystems model 430A peptide synthesizer) and 3 mg/ml of luciferin/luciferase (Sigma, St. Louis, Mo.) in a volume of 10 μl is added to 20 μl of PRP. Samples are immediately analyzed for luminescence. Activated platelets supply the ATP necessary for luminescence of the luciferin/luciferase assay. Assays can be performed at high throughput through use of a microtiter plate system, e.g., 384-well plates and a Multidrop 384 (Thermo Labsystems, Helsinki), read with a high density imaging system, e.g., the Tundra system (Imaging Research, St. Catherine's, Ontario).
In order to assay platelet activation by cell surface marker expression, fresh PRP is isolated from donors who have not ingested aspirin for two weeks prior to donation. PRP (40 μl) is incubated with known or suspected inhibitor in DMSO or DMSO alone for 15 min. The sample is then incubated with the indicated agonist (e.g., SFLLR) for 10 min. Following incubation of the sample with the indicated agonist, 10 μl of reaction mixture is transferred to 5 μl of phycoerythrin (PE)-conjugated AC 1.2 anti-P-selectin antibody (for assessment of P-selectin surface expression) or fluorescein isothiocyanate (FITC)-conjugated PAC-1 antibody (for assessment of GPIIbIIIa activation). PBS (500 μl) is added to the sample after a 20 min incubation and the platelets are analyzed immediately by flow cytometry. Flow cytometry can be performed using, for example, a Becton-Dickinson FACSCalibur flow cytometer or its equivalent. Fluorescent channels are set at logarithmic gain. Ten thousand particles are acquired for each sample. A 530/30 band pass filter is used for FL-1 fluorescence. A 585/42 band pass filter is used for FL-2 fluorescence. FITC is measured in the FL-1 channel and PE is measured in the FL-2 channel. Data are analyzed using, for example, CellQuest software on a Macintosh PowerPC, or their equivalents.
Compounds were tested for the ability to inhibit agonist-induced ADP/ATP release from platelet dense granules using a luciferin-luciferase reporter system. In this assay, compounds were incubated with platelet-rich plasma (PRP) for 30 min. A cocktail of the platelet agonist and luciferin-luciferase was then added to the wells. Plates were immediately analyzed using a Tundra high density luminescence imager. […] As a control, compounds were also screened in a platelet-free assay for the ability to inhibit luciferin-luciferase upon exposure to ATP.
Each of the compounds was tested for inhibition of platelet activation in response to the agonists SFLLR (a thrombin mimic), U46619 (a thromboxane A2 mimic), ADP and the phorbol ester PMA.
Compounds were also tested by flow cytometry for the inhibition of SFLLR-induced GPIIbIIIa activation and P-selectin expression. In these experiments, freshly obtained PRP was prepared from healthy volunteers who had not ingested aspirin for two weeks prior to donation. Forty μl of PRP was incubated with inhibitor in DMSO or DMSO alone for 15 min. The sample was then incubated with the indicated agonist for 10 min. Following incubation of the sample with the indicated agonist, 10 μl of reaction mixture was transferred to 5 μl of PE-conjugated AC1.2 anti-P-selectin antibody (for assessment of P-selectin surface expression) or FITC-conjugated PAC-1 antibody (for assessment of GPIIbIIIa activation). PBS (500 μl) was added to the sample after a 20 min incubation and the platelets were analyzed immediately by flow cytometry. Flow cytometry was performed using a Becton-Dickinson FACSCalibur flow cytometer. Fluorescent channels were set at logarithmic gain. Ten thousand particles were acquired for each sample. A 530/30 band pass filter was used for FL-1 fluorescence. A 585/42 band pass filter was used for FL-2 fluorescence. FITC was measured in the FL-1 channel and PE was measured in the FL-2 channel.
On the technique in general: In flow cytometry, cells or beads pass a laser one at a time.

For assay [2], the system named is platelet accumulation into thrombus. It counts as in vivo. An excerpt:
A preferred animal model involves intravital microscopy of laser-induced thrombi. The method is described by Rosen et al., 2001, Am J Pathol 158, 1613-1622, which is incorporated herein by reference. Minor variations of that method were employed as described below.
Experimental mice are pre-anesthetized and surgically prepared. A tracheal tube is placed to facilitate breathing and the jugular vein is canulated to allow for maintenance of anesthetic and introduction of compound. The cremaster muscle is then exteriorized. The muscle is affixed over a glass slide, allowing illumination from below. A steady drip of a sodium-bicarbonate buffered salt solution is maintained throughout the experiment to keep the exposed muscle moist. Blood flow in the muscle is visualized using a 40× water immersion lens and epi-illuminated with an appropriately filtered light source. Alexa 488-labeled anti-mouse CD41 antibody is injected through the jugular canulus to label platelets in vivo.
Thrombosis is initiated by damaging the vessel wall (of a 30 μm vessel) with a laser pulse from a MicroPoint LASER attached to the microscope. A LASER pulse is delivered, causing damage in an area smaller than 1 μm. The recruitment of platelets to the thrombus is then monitored by the accumulation of (activated) Alexa 488-labeled platelets at the ablation site using fluorescence microscopy, and the process is recorded digitally. The method thus permits in vivo analysis of platelet activation as measured by platelet aggregation and thrombosis.
The degree of embolization in an untreated mouse can be quantified using software for image analysis, e.g., BioQuant True Color Windows (Biometrics, Nashville, Tenn.), as described in Rosen et al., 2001, supra. The software package permits the determination of the “integrated optical density” or IOD of the thrombus.
Using quantitative intravital fluorescence videomicroscopy with high temporal resolution (111 images/second), the effect of PDE3 inhibition on the platelet recruitment into thrombi was directly observed over time. Platelets were fluorescently labeled by infusing rat-anti-mouse CD41 and Alexa 488-anti-rat IgG through a cannulated jugular vein. The cremaster microvasculature was exposed and mapped and suitable arteriole segments were selected for laser-induced injury. A series of control injuries were generated prior to infusion of the inhibitory compound. The power and the number of laser pulses required to generate each thrombus was recorded. Platelet accumulation to the thrombi following laser ablation was recorded using digital videomicroscopy. The thrombus total fluorescence in each frame of the videos was analyzed using Slidebook software for digital videomicroscopy. The pyridazinone compound was then infused. Following a 15 minute incubation, a series of experimental injuries were generated 250 μm proximal, with relationship to blood flow, of the first injury and the resultant thrombi were recorded. The power and the number of pulses required to induce the control thrombus was used to induce the experimental thrombus. The control and experimental thrombi constituting a pair were compared for statistical analysis. The total fluorescence intensity of the thrombi before and after the infusion of pyridazinone compound was recorded.
Images from a representative experiment of the recruitment of fluorescently-labeled […] platelets into a growing thrombus over time is shown in FIG. 9A.

Where two headings read alike, the source gives them in different places. Bounds are passed on as bounds.

As to `CC1CC(=O)NN=C1c1ccc(N)c([N+](=O)[O-])c1` (stereo not drawn) [6-(4-Amino-3-nitro-phenyl)-5-methyl-4,5-dihydro-2H-pyridazin-3-one], the “ADP- and collagen-induced granule release less potent than SFLLR and U46619” value in assay [1] is “at least 25 fold”. Besides, in assay [1] (ADP vs SFLLR and U46619), the “ADP-induced responses inhibited less effectively than SFLLR and U46619 responses” value is given as “approximately 20 fold”. Also, the IC50 was found to be 8 µM in assay [1] (agonist ADP, read-out: IC50s of inhibition of platelet granule secretion induced with ADP); 0.3 µM in assay [1] (agonists SFLLR and U-46619, read-out: IC50 SFLLR- and U-46619-induced activation); 70 µM in assay [1] (agonist Collagen, read-out: IC50 collagen-induced platelet granule release). In addition, the “Inhibition of PMA-induced platelet activation” value in assay [1] (agonist PMA) is given as “did not inhibit”. Besides, the “Inhibition of PMA-induced activation” value in assay [1] (agonist PMA, up to 1000 μM) is “No inhibition”. Moreover, the “Inhibition of maximal rate of platelet recruitment” value in assay [2] (0.3 mg/kg) turned out to be 37%; in assay [2] (1.2 mg/kg), 56%. In addition, the “Median Stabilized/Maximum platelet accumulation” value in assay [2] (0.3 mg/kg) amounted to 36%; in assay [2] (0.6 mg/kg), 41%; in assay [2] (1.2 mg/kg), 33%. Besides, the “Inhibition of maximum platelet accumulation” value in assay [2] (0.6 mg/kg) was 61%; in assay [2] (1.2 mg/kg), 56%. Also, in assay [2] (0.6 mg/kg (P<0.05) and 1.2 mg/kg (P<0.01)), the Stabilized platelet accumulation result is reported as “dose-dependent inhibition”. Further, the “Maximum platelet accumulation compared to absence of compound” value in assay [2] (0.6 mg/kg and 1.2 mg/kg (P<0.05)) is “statistically significant decrease”. In addition, the “Inhibition of stabilized platelet accumulation” value in assay [2] (0.6 mg/kg, 300 seconds after laser injury) amounted to 54%; in assay [2] (1.2 mg/kg, 300 seconds after laser injury), 72%. Besides, the “Median total thromboembolization, % of the maximum platelet accumulation of control thrombi” value in assay [2] (1.2 mg/kg, p<0.04) is 1.0%. The Thromboembolization result was “significantly reduced” in assay [2] (after infusion of 1.2 mg/kg) and “inhibited” in assay [2] (same mouse model, dose not stated). For the same compound, the Reduction of embolization result in assay [2] (after injection, laser-induced thrombus) is reported as “greater than 80%”. Moreover, the “Inhibition of thrombus formation” value in assay [2] (laser-induced thrombosis, P<0.01) amounted to 72%.
For `CCCCCn1c2c(c(=N)c3ccccc31)CCC2` [JF081204{5C}], in assay [1], the “U46619-, A23187-, and PMA-induced P-selectin expression less potent than SFLLR” value is “at least 150 fold”. The IC50 in assay [1] (agonist A23187, read-out: IC50 P-Selectin Expression Induced by A23187) was more than 300 µM; in assay [1] (agonist PMA, read-out: IC50 P-Selectin Expression Induced by PMA), 300 µM; in assay [1] (agonist SFLLRN, maximally stimulatory dose, read-out: IC50 P-Selectin Expression Induced by SFLLRN), 2 µM; in assay [1] (agonist SFLLRN/SFLLR, human platelets, read-out: IC50 SFLLRN-induced P-selectin expression, flow cytometry), 2 to 150 µM; in assay [1] (agonist U46619, read-out: IC50 P-Selectin Expression Induced by U46619) it was 400 µM. Also, the “Potency in inhibiting SFLLRLN- and epinephrine-induced activation relative to other agonists” value in assay [1] (footnote, sentence cut off) was “#inhibit platelet activation induced by the indicated agonist is shown. The potency of this compound in inhibiting SFLLRLN- and epinephrine-induced activation was at least 100-fold greater than that o”. The “Time for thrombus to achieve 50% maximum platelet accumulation / onset of platelet accumulation” value in assay [2] (1 mg/kg (P<0.001), 3 mg/kg (P<0.05), 6 mg/kg (P<0.001)) is given as “statistically significant delay”. In addition, the “Platelet accumulation over stages of thrombus formation” value in assay [2] (1 mg/kg, 3 mg/kg, and 6 mg/kg) was “inhibited at all stages”. Also, the “Median of maximum platelet accumulation compared to absence of compound” value in assay [2] (3 mg/kg (P<0.002) and 6 mg/kg (P<0.02)) is listed as “statistically significant decrease”. The “Median stabilized platelet accumulation” value in assay [2] (3 mg/kg (P<0.01) and 6 mg/kg (P<0.001)) is “dose-dependent inhibition”. Besides, in assay [2] (dose-dependent, 1-6 mg/kg), the “Inhibition of maximum platelet accumulation” value is “up to 80%”. Further, the “Inhibition of stabilized platelet accumulation” value in assay [2] (dose-dependent, 5 minutes following laser injury) is reported as “up to 75%”.
